# Measurements: publication PMC5854701 (Scientific Reports, 2018)
# Legend:
# [1] = system: influenza B virus B/Wisconsin/1/2010 (Yamagata); experiment: in vitro; conditions: dog, MDCK
# [2] = system: multiple strains of influenza A and B viruses; experiment: microbe, parasite or virus in culture; type: cell-based
# A/WSN/33 (H1N1) [3] = system: A/WSN/33 (H1N1)
# in vitro [4] = conditions: dog
# [5] = system: influenza B virus B/Brisbane/60/2008 (Victoria); experiment: in vitro; conditions: dog, MDCK
# [6] = system: A/Switzerland/9715293/2013 (H3N2)
# [7] = system: A/California/07/2009 (H1N1)
# [8] = system: A/Denmark/528/2009 (H1N1)
# [9] = system: A/Washington/29/2009 (H1N1)
# [10] = system: influenza B virus B/Memphis/20/1996 (Yamagata); experiment: in vitro; conditions: dog, MDCK
# [11] = system: B/Phuket/3073/2013 (Yamagata)
# in vitro [12] = conditions: human
# [13] = system: B/Utah/09/2014 (Yamagata)
# [14] = system: A/Denmark/524/2009 (H1N1)
# [15] = system: B/Wisconsin/1/2010 (Yamagata)
# [16] = system: B/Memphis/20/1996 (Yamagata)
# [17] = system: B/Brisbane/60/2008 (Victoria)
# A/WSN/33 (H1N1) [18] = system: A/WSN/33 (H1N1); remark: listed apart in the source
# [19] = system: influenza B virus B/Phuket/3073/2013 (Yamagata); experiment: in vitro; conditions: dog, MDCK
# [20] = system: influenza B virus B/Utah/09/2014 (Yamagata); experiment: in vitro; conditions: dog, MDCK
compound,measurement,setting,value
"O=c1[nH]c2ccccc2n1C1CCN(C(CCc2ccccc2)c2nnnn2-c2ccc3c(c2)OCCO3)CC1 (stereo not drawn) [Compound 5, 1‐(1‐{1‐[1‐(2,3‐dihydro‐1,4‐benzodioxin‐6‐yl)‐1,2,3,4‐tetrazol‐5‐yl]‐3‐phenylpropyl}piperidin‐4‐ yl)‐3 H‐1,3‐benzodiazol‐2‐one]",selectivity ratio,[1],19.3
same,EC50 values against panel of influenza A and B viruses,[2],single to submicromolar
same,% plaque formation at 5 µM,A/WSN/33 (H1N1) [3],16.5 ± 1.2%
same,CC50,in vitro [4],17.4 ± 1.2 µM
same,selectivity ratio,[5],17.4
"O=c1[nH]c2ccccc2n1C1CCN(C(c2ccc(-c3ccccc3)cc2)c2nnnn2-c2ccc3c(c2)OCCO3)CC1 (stereo not drawn) [Compound 9 f, 1‐[1‐({[1,1′‐biphenyl]‐4‐yl}[1‐(2,3‐dihydro‐1,4‐benzodioxin‐6‐yl)‐1 H‐1,2,3,4‐tetrazol‐5‐yl]methyl)piperidin‐4‐yl]‐2,3‐dihydro‐1 H‐1,3‐benzodiazol‐2‐one]",antiviral activity in plaque assay (in words),A/WSN/33 (H1N1) [3],not active
"CCc1ccc(C(c2nnnn2-c2ccc3c(c2)OCCO3)N2CCC(n3c(=O)[nH]c4ccccc43)CC2)cc1 (stereo not drawn) [Compound 9 g, 1‐(1‐{[1‐(2,3‐dihydro‐1,4‐benzodioxin‐6‐yl)‐1 H‐1,2,3,4‐tetrazol‐5‐yl](4‐ethylphenyl)methyl}piperidin‐4‐yl)‐2,3‐dihydro‐1 H‐1,3‐benzodiazol‐2‐one]",antiviral activity in plaque assay (in words),A/WSN/33 (H1N1) [3],moderate antiviral activity
"O=c1[nH]c2ccccc2n1C1CCN(C(c2ccncc2)c2nnnn2-c2ccc3c(c2)OCCO3)CC1 (stereo not drawn) [Compound 9 h, 1‐(1‐{[1‐(2,3‐dihydro-1,4-benzodioxin-6-yl)-1 H-1,2,3,4-tetrazol-5-yl](pyridin-4-yl)methyl}piperidin-4-yl)-2,3-dihydro-1 H-1,3-benzodiazol-2-one]",antiviral activity in plaque assay (in words),A/WSN/33 (H1N1) [3],moderate antiviral activity
"O=c1[nH]c2ccccc2n1C1CCN(C(c2ccccc2OC(F)(F)F)c2nnnn2Cc2ccccc2)CC1 (stereo not drawn) [Compound 9 u, 1‐{1‐[(1‐benzyl‐1 H‐1,2,3,4‐tetrazol‐5‐yl)[2‐(trifluoromethoxy)phenyl]methyl]piperidin‐4‐yl}‐2,3‐dihydro‐1 H‐1,3‐benzodiazol‐2‐one]",% plaque formation at 5 µM,A/WSN/33 (H1N1) [3],22.7 ± 2.2%
"CCC(c1nnnn1-c1ccc2c(c1)OCCO2)N1CCC(n2c(=O)[nH]c3ccccc32)CC1 (stereo not drawn) [Compound 9d, 1‐(1‐{1‐[1‐(2,3‐dihydro‐1,4‐benzodioxin‐6‐yl)‐1 H‐1,2,3,4‐tetrazol‐5‐yl]propyl}piperidin‐4‐yl)‐2,3‐dihydro‐1 H‐1,3‐benzodiazol‐2‐one]",antiviral activity in plaque assay (in words),A/WSN/33 (H1N1) [3],moderate antiviral activity
"O=c1[nH]c2ccccc2n1C1CCN(C(Cc2ccccc2)c2nnnn2-c2ccc3c(c2)OCCO3)CC1 (stereo not drawn) [Compound 9e, 1‐(1‐{1‐[1‐(2,3‐dihydro‐1,4‐benzodioxin‐6‐yl)‐1 H‐1,2,3,4‐tetrazol‐5‐yl]‐2‐phenylethyl}piperidin‐4‐yl)‐2,3‐dihydro‐1 H‐1,3‐benzodiazol‐2‐one]",antiviral activity in plaque assay (in words),A/WSN/33 (H1N1) [3],moderate antiviral activity
"CC(C)c1ccc(C(c2nnnn2-c2ccc3c(c2)OCCO3)N2CCC(n3c(=O)[nH]c4ccccc43)CC2)cc1 (stereo not drawn) [Compound 9j, 1‐(1‐{[1‐(2,3‐dihydro‐1,4‐benzodioxin‐6‐yl)‐1 H‐1,2,3,4‐tetrazol‐5‐yl][4‐(propan‐2‐yl)phenyl]methyl}piperidin‐4‐yl)‐2,3‐dihydro‐1 H‐1,3‐benzodiazol‐2‐one]",antiviral activity in plaque assay (in words),A/WSN/33 (H1N1) [3],not active
"O=c1[nH]c2ccccc2n1C1CCN(C(c2ccsc2)c2nnnn2Cc2ccccc2)CC1 (stereo not drawn) [Compound 9p, 1‐{1‐[(1‐benzyl‐1 H‐1,2,3,4‐tetrazol‐5‐yl)(thiophen‐3‐yl)methyl]piperidin‐4‐yl}‐2,3‐dihydro‐1 H‐1,3‐benzodiazol‐2‐one]",% plaque formation at 5 µM,A/WSN/33 (H1N1) [3],12.3 ± 2.1%
"C[C@@H](c1ccccc1)n1nnnc1[C@H](c1ccsc1)N1CCC(n2c(=O)[nH]c3ccccc32)CC1 [Compound 12a, 1‐{1‐[(S)‐{1‐[(1 S)‐1‐phenylethyl]‐1 H‐1,2,3,4‐tetrazol‐5‐yl}(thiophen‐3‐yl)methyl]piperidin‐4‐yl}‐2,3‐dihydro‐1 H‐1,3‐benzodiazol‐2‐one]","SI (selectivity index), A549",[6],>107.1/70.1
same,"SI (selectivity index), A549",[7],>115.4/75.5
same,"SI (selectivity index), A549",[8],>166.7/109.0
same,"SI (selectivity index), A549",[9],>166.7/109.0
same,selectivity ratio,[1],> 188
same,selectivity ratio,[10],> 55.6
same,"SI (selectivity index), A549",[11],>125/81.8
same,EC50,"[2]; […], read-out: EC50 values against panel of influenza A and B viruses",0.6 to 2.7 µM
same,"SI (selectivity index), A549",A/WSN/33 (H1N1) [3],>214.3/140.1
same,CC50,in vitro [12],98.1 ± 2.5 µM
same,"SI (selectivity index), A549",[13],>100/65.4
same,"SI (selectivity index), A549",[14],>187.5/122.6
same,"SI (selectivity index), A549",[15],>187.5/122.6
same,"SI (selectivity index), A549",[16],>55.6/36.3
same,"SI (selectivity index), A549",[17],>250/163.5
same,"SI (selectivity index), A549",A/Texas/04/2009 (H1N1),>136.4/89.2
same,effect of pre-treatment of cells on viral replication,A/WSN/33 (H1N1) [18],little to no effect on viral replication
same,efficacy when added at later stages of viral replication,A/WSN/33 (H1N1) [18],gradually decreased
same,selectivity ratio,[19],> 125
same,CC50,in vitro [4],> 150 µM
same,selectivity ratio,[5],> 250
same,selectivity ratio,[20],> 100
"C[C@@H](c1ccccc1)n1nnnc1[C@@H](c1ccsc1)N1CCC(n2c(=O)[nH]c3ccccc32)CC1 [Compound 12b, 1‐{1‐[(R)‐{1‐[(1 S)‐1‐phenylethyl]‐1 H‐1,2,3,4‐tetrazol‐5‐yl}(thiophen‐3‐yl)methyl]piperidin‐4‐yl}‐2,3‐dihydro‐1 H‐1,3‐benzodiazol‐2‐one]",antiviral activity in plaque assay (in words),A/WSN/33 (H1N1) [3],not active
"Cc1onc(-c2ccccc2)c1C(=O)N1CCN(c2ccc([N+](=O)[O-])cc2Cl)CC1 [Nucleozin, reference compound]",% plaque formation,A/WSN/33 (H1N1) [3],0%
Oseltamivir carboxylate [reference compound],% plaque formation,A/WSN/33 (H1N1) [3],11.1 ± 2.1%
same,antiviral activity when added 8 h post viral infection,A/WSN/33 (H1N1) [18],retained potent antiviral activity
